By Ki is commonly meant the equilibrium dissociation constant of an inhibitor or competing ligand from its target. One may read the IC50 as the concentration that inhibits the measured activity by half.

One assay deals with BRD4 BD2 (Homo sapiens (Human), UniProt O60885). The experiment in a line: FP competitive binding assay using Cpd. No. 350 as the probe. Particulars: read-out: BRD4 BD2 Ki; FP, Cpd. No. 350 probe […].
The target of a further assay is BRD4 BD1 (Homo sapiens (Human), UniProt O60885). Described as above. Particulars: read-out: BRD4 BD1 Ki; FP, Cpd. No. 350 probe […].
The target of a further assay is BRD3 BD2 (Homo sapiens (Human), UniProt Q15059). The description is as above. Particulars: read-out: BRD3 BD2 Ki; FP, Cpd. No. 350 probe […].
Sequence of BRD3 BD2 (Q15059 306-415): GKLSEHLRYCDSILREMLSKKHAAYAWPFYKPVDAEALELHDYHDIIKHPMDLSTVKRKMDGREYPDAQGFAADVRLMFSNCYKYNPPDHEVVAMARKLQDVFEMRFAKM
A further assay concerns the target BRD3 BD1 (Homo sapiens (Human), UniProt Q15059). The description is as above. The conditions noted are these: read-out: BRD3 BD1 Ki; FP, Cpd. No. 350 probe […].
The subject of another assay is MOLM-13. The experiment in a line: Cell growth inhibition, CellTiter-Glo, acute leukemia cell line. Format: cell-based. The conditions noted are these: Homo sapiens, MOLM-13, 96 h, 4 days. As to the method:
(§1) Cell growth inhibitory activity of representative BET bromodomain inhibitors was determined using CellTiter-Glo® Luminescent Cell Viability Assay. For leukemia cell lines MV-4-11 (ATCC, Manassas, Va.) and MOLM-13 (DSMZ, Germany), cells were seeded in 96-well white opaque cell culture plates at a density of 10,000 cells/well with serially diluted compounds and incubated at 37° C. in an atmosphere of 95% air and 5% CO2 for 4 days. Cell viability was determined using the CellTiter-Glo® Luminescent Cell Viability Assay Kit (Promega, Madison, Wis.) according to the manufacture's instruction. Briefly, a volume of CellTiter-Glo® Reagent equal to the volume of cell culture medium was added to each well, and then the plates were incubated at room temperature for 10-20 minutes. The luminescent signal was measured using a Tecan Infinite M1000 multimode microplate reader (Tecan, Morrisville, N.C.). The half maximal inhibitory concentration (IC50) was calculated using the GraphPad Prism 5 software (GraphPad Software, La Jolla, Calif.).
A general note: ATP-based viability assays read luminescence as a measure of living cells.

The subject of the next assay is MV-4-11. The assay is described as above. Format: cell-based. Particulars: Homo sapiens, MV4-11, 96 h, 4 days. As to the method: as §1
The subject of the next assay is MDA-MB-157. As to the kind of experiment: Cell growth inhibition, WST-8, breast cancer cell line. The conditions noted are these: Homo sapiens, MDA-MB-157, 96 h, 4 days. Format: cell-based. As to the method: (§2) For breast cancer cell lines, cells were seeded in 96-well cell culture plates at a density of 5,000-10,000 cells/well with serially diluted compounds and incubated at 37° C. in an atmosphere of 95% air and 5% CO2 for 4 days. All the breast cancer cell lines were obtained from the ATCC. Cell viability was determined using the WST-8 (2-(2-methoxy-4-nitrophenyl)-3-(4-nitrophenyl)-5-(2,4-disulfophenyl)-2H-tetrazolium, monosodium salt) based Cell Counting-8 Kit (Dojindo Molecular Technologies, Inc., Rockville, Md.) according to the manufacture's instruction. Briefly, WST-8 was added to each well at a final concentration of 10% (v/v), and then the plates were incubated at 37° C. for 1-2 hours for color development. The absorbance was measured at 450 nm using a SPECTRAmax PLUS plate reader (Molecular Devices, Sunnyvale, Calif.). The IC50 was calculated using the GraphPad Prism 5 software.

A further assay has as its system SK-BR-3. The description is as above. Particulars: Homo sapiens, SK-BR-3, 96 h, 4 days. Type of assay: cell-based. The protocol: as §2
The next assay relates to MDA-MB-231. The assay is described as above. Particulars: Homo sapiens, MDA-MB-231, 96 h, 4 days. Type of assay: cell-based. As to the method:
as §2

A further assay has as its system BT-474. Described as above. Format: cell-based. Particulars: Homo sapiens, BT-474, 96 h, 4 days. As to the method: as §2
The test system of the next assay is MDA-MB-436. The assay is described as above. The conditions noted are these: Homo sapiens, MDA-MB-436, 96 h, 4 days. Type of assay: cell-based. The protocol:
as §2

The test system of a further assay is prostate VCaP cell line. The experiment in a line: Cell growth inhibition, Cell TiterGLO, 4 days. Type of assay: cell-based. The conditions noted are these: Homo sapiens, VCaP, 96 h, treated 4 days, read-out: VCaP cells (IC50 (nM)).
For a further assay, the target named is BRD2 BD1 (Homo sapiens (Human), UniProt P25440). The experiment in a line: FP competitive binding assay using Cpd. No. 350 as the probe. The conditions noted are these: read-out: BRD2 BD1 Ki; FP, Cpd. No. 350 probe […].
Sequence of BRD2 BD1 (P25440 74-180): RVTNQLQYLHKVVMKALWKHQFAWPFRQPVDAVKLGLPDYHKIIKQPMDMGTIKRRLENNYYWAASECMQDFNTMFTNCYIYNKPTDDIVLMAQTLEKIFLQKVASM
In the next assay the target is BRD2 BD2 (Homo sapiens (Human), UniProt P25440). Described as above. The conditions noted are these: read-out: BRD2 BD2 Ki; FP, Cpd. No. 350 probe […].
Sequence of BRD2 BD2 (P25440 344-453): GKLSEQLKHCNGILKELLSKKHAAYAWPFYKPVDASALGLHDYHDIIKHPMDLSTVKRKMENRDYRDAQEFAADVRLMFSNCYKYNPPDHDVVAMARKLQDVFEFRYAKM

Sequence of BRD3 BD1 (Q15059 34-140): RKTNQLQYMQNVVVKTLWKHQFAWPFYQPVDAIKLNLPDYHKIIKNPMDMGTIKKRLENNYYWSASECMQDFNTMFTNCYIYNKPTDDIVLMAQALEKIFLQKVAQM
Method for BRD2 BD1: (§3) Fluorescence Polarization (FP) competitive binding studies (see above) were carried out using the FAM labeled fluorescent probe Cpd. No. 350 to determine binding affinities of representative compounds to both BD1 and BD2 of BRD2, BRD3, and BRD4 proteins. Equilibrium dissociation constants (Id) values of Cpd. No. 350 to these six proteins were determined from protein saturation experiments by monitoring the total fluorescence polarization of mixtures composed with the fluorescent probe at a fixed concentration and proteins with increasing concentrations up to full saturation. Serial dilutions of testing protein were mixed with Cpd. No. 350 to a final volume of 200 μl in the assay buffer. […] Plates were incubated at room temperature for 30 minutes with gentle shaking to assure equilibrium. […] Kd values of Cpd.
(§4) The IC50 and Ki values of compounds were determined in a competitive binding experiment as described above. […] FP values were measured as described above. IC50 values were determined by nonlinear regression fitting of the competition curves.
Method for BRD3 BD1: as §3, §4
Method for BRD3 BD2: as §3, §4
Method for BRD4 BD1: as §3, §4
Method for BRD4 BD2: as §3, §4

On to `COc1cc2c(cc1-c1c(C)noc1C)[nH]c1nc(C)nc(-c3c(C)[nH]c4ccccc34)c12` [Cpd. No. 68], for which the inhibition constant Ki on BRD4 BD2 worked out at 1.7 nM; at BRD4 BD1 it was 7.3 nM; at BRD3 BD2, 0.65 nM; on BRD3 BD1, 5.1 nM; on BRD2 BD1, 3.2 nM; at BRD2 BD2, 2.7 nM. Also, the IC50 in the assay with MOLM-13 was below 100 nM; in the assay with MV-4-11, below 100 nM; with MDA-MB-157, below 300 nM; in the assay with SK-BR-3 it was below 300 nM; in the assay on MDA-MB-231 it was below 300 nM; in the assay on BT-474, below 300 nM. Also, the IC50 in the assay on MDA-MB-436 was below 300 nM; with prostate VCaP cell line, 148 nM.
